{"source": "paper PMC5444695", "about": "“CM363, a novel naphthoquinone derivative which acts as multikinase modulator and overcomes imatinib resistance in chronic myelogenous leukemia” (Oncotarget, 2016)", "key": {"HEK cells": {"tested_on": "HEK cells", "test": "MTT cell viability assay, HEK cells", "type": "cell-based", "settings": "Homo sapiens, HEK293, 48 h, read-out: IC50 (μM) Mean ± SD", "procedure": "(§1) All cell lines were purchased from the American Type Culture Collection (ATCC). The cell lines were growth at 37°C under 5% CO2 under humidified atmosphere. The cell lines K562 (derived from patients during the blast crisis phase of CML and IM sensitive), K562-R (IM resistance human CML), KmycBT15I (KBTI; IM resistant human CML, expressing the Bcr-Abl […] mutant), HEL (human erythroleukemia), HL60 (human acute myeloid leukemia), MOLM-13 (human acute myeloid leukemia), MV4.11 (human acute monocytic leukemia), HCT-15 (human colorectal adenocarcinoma), PC3 (human prostate cancer), MCF7 (human breast cancer), NCTC3749 (mouse lymphoma) as well as the MRC.5 cells (non-malignant human lung fibroblasts) were maintained in RPMI-1640 medium. The cell lines L1210 (mouse lymphocytic leukemia cells), Raw (mouse macrophage), HeLa (human epithelial cervix cancer), U-2 OS (human osteosarcoma), MG63 (human osteosarcoma) and T47D (human breast cancer adenocarcinoma) were maintained in DMEM. HEK293 cells stably expressing the GH receptor (HEKGHR) were maintained in DMEM-F12 medium. […]\n(§2) Cells were seeded in 96-well plates (BD Falcon, France) at exponential growth density (5000–20000 cells/well) and treated with vehicle (0.05% DMSO) or compound (0.01 to 10 μM) for 48–72 h. […] Optical density was measured at 595 nm with the iMark Microplate Reader (BioRad, CA, USA)."}, "NCTC cells": {"tested_on": "NCTC cells", "test": "MTT cell viability assay, NCTC cells", "type": "cell-based", "settings": "Mus musculus, 48 h, read-out: IC50 (μM) Mean ± SD", "procedure": "as §1, §2"}, "MV4.11 cells": {"tested_on": "MV4.11 cells", "test": "MTT cell viability assay, MV4.11 cells", "type": "cell-based", "settings": "Homo sapiens, MV4.11, 48 h, read-out: IC50 (μM) Mean ± SD", "procedure": "as §1, §2"}, "PC3 cells": {"tested_on": "PC3 cells", "test": "MTT cell viability assay, PC3 cells", "type": "cell-based", "settings": "Homo sapiens, PC-3, PC3, 48 h, read-out: IC50 (μM) Mean ± SD", "procedure": "as §1, §2"}, "MCF7 cells": {"tested_on": "MCF7 cells", "test": "MTT cell viability assay, MCF7 cells", "type": "cell-based", "settings": "Homo sapiens, MCF7, 48 h, read-out: IC50 (μM) Mean ± SD", "procedure": "as §1, §2"}, "SKBR3 cells": {"tested_on": "SKBR3 cells", "test": "MTT cell viability assay, SKBR3 cells", "type": "cell-based", "settings": "Homo sapiens, SK-BR-3, SKBR3, 48 h, read-out: IC50 (μM) Mean ± SD"}, "[1]": {"test": "Live-cell imaging (IncuCyte HD) of proliferation and cytotoxicity, K562 cells", "type": "cell-based, human", "settings": "human, K562 cells; K562, continuous exposure over 4-day period, area under curve; read-out: EC50AUC, cytotoxic effect", "procedure": "(§3) Kinetic measurements of cell proliferation and cytotoxicity were carried out by using the IncuCyte^TM HD real time imaging system (Essen BioScience, Hertfordshire, United Kingdom). After seeding in a polylysine-coated 96 well-plates, K562 cells were treated with different concentrations of compound. This IncuCyte™ microscope permits the acquisition of automated phase contrast images. Individual images are processed by an imbedded contrast-based confluence algorithm, which compute monolayer confluence for each image and at each time point. Multiple images are collected per well and averaged to provide a representative statistical measure of confluence."}, "K562 cells": {"tested_on": "K562 cells", "test": "Live-cell imaging (IncuCyte HD) of proliferation and cytotoxicity, K562 cells", "type": "cell-based, human", "settings": "Homo sapiens", "procedure": "as §3"}, "[2]": {"tested_on": "IM resistant K562 cells (K562-R)", "test": "Live-cell imaging (IncuCyte HD) of proliferation, IM resistant K562 cells", "type": "cell-based", "settings": "Homo sapiens, 96 h, 4-day period, area under curve, read-out: IC50AUC, cytostatic effect on cell growth", "procedure": "as §3"}, "K562 tumor xenografts": {"tested_on": "K562 tumor xenografts", "test": "K562 tumor xenografts in NOD-SCID mice", "type": "in vivo", "settings": "CM363 10 mg/kg i.p., 25 days, P = 0.004 day 4, P = 0.007 day 25", "procedure": "Six weeks old female athymic mice (NOD-SCID), were purchased from Charles River River (Barcelona, Spain), and were housed in a specifically designed pathogen-free isolation facility as reported previously. […] The vehicle and CM363 treatments were administered via intraperitoneal injection (i.p.) every day except Saturday and Sunday. […] The study was conducted over a 25 days period. Caliper measurements of the tumor diameters were performed twice per week, and the tumor volume was estimated as the volume of an ellipse using the following formula: V = 4/3n × (a/2) × (b/2)^2, where a and b correspond to the longest and shortest diameter, respectively. Mice were sacrificed when their tumor diameters reached 2 cm, or when they became moribund. Differences in tumor volumes between control and treated group were evaluated using the Mann-Whitney test."}, "KBTI cells": {"tested_on": "KBTI cells", "test": "Viability of IM-resistant KBTI cells", "type": "cell-based", "settings": "IM-resistant KBTI human cells, data not shown", "procedure": "as §1, §2"}, "Stat5 response element": {"tested_on": "Stat5 response element", "test": "Stat5 luciferase reporter gene assay in HEKGHR cells", "type": "cell-based", "settings": "1 h pretreatment then GH 7 h", "procedure": "The HEKGHR cell line was used to determine the effects of compounds on GH-regulated Stat5 transcriptional activity. HEKGHR cells were transfected with pSPI-GLE1-Luc (1 μg) overnight using Metafectene Pro® (Biontex, Germany). The β-galactosidase expression plasmid (0.05 μg) (Thermo Scientific, Illinois, USA) was used for controlling transfection efficiency. The stable reporter cell line HeLa/Stat3-luc (Panomics, Fremont, USA), was used to determine the effects of compounds on oncostatin M-regulated Stat3 transcriptional activity. Cells were seeded in a 6-well culture plate (Nunc, Denmark) and they were serum deprived (0.5% FBS) for 16 h. Then, cells were treated with vehicle (0.05% DMSO) or compound (0.1 to 10 μM) during 1 h before rhGH (50 nM) or oncostatin M (50 ng/ml) were added for 7 h for induction of Stat5- or Stat3-dependent transcriptional activities, respectively. Cells were lysed in Passive Lysis Buffer and luciferase activity was determined by the Luciferase Assay System (Thermo Scientific, Illinois, USA). Luciferase activity was measured using the microplate reader Fluoroskan Ascent FL (Labsystems). Results are expressed as relative luciferase units (RLU) per mg of protein content and β-galactosidase activity and normalized to those obtained for vehicle-treated control cells."}, "Stat3 response element": {"tested_on": "Stat3 response element", "test": "Stat3 luciferase reporter gene assay in HeLa/Stat3-luc cells", "type": "cell-based", "settings": "1 h pretreatment then IL6 7 h"}}, "note": "“Also recorded” adds a separate entry of the source. Where two headings read alike, the source gives them in different places."}
{"smiles": "N#Cc1ccc(C2C3=C(CCCC3=O)OC3=C2C(=O)c2ccccc2C3=O)cc1", "note": "(centres unmarked) [CM363, 4-(1,6,11-trioxo-2,3,4,6,11,12-hexahydro-1H-benzo[b]xanthen-12-yl)benzonitrile]", "values": [{"measurement": "IC50", "setting": "HEK cells", "result": "0.6 ± 0.2", "unit": "µM"}, {"measurement": "IC50", "setting": "NCTC cells", "result": "1.1 ± 0.7", "unit": "µM"}, {"measurement": "IC50", "setting": "MV4.11 cells", "result": "1.2 ± 1.1", "unit": "µM"}, {"measurement": "IC50", "setting": "PC3 cells", "result": "1.5 ± 1", "unit": "µM"}, {"measurement": "IC50", "setting": "MCF7 cells", "result": "1.7 ± 1.1", "unit": "µM"}, {"measurement": "IC50", "setting": "SKBR3 cells", "result": "2.6 ± 0.8", "unit": "µM"}, {"measurement": "EC50 at 4 days", "setting": "[1]", "result": "1100 ± 400", "unit": "nM"}, {"measurement": "IC50", "setting": "K562 cells; 96 h, IM sensitive K562, continuous exposure over 4-day period, area under curve, read-out: IC50AUC, cytostatic effect on cell growth", "result": "600 ± 300", "unit": "nM"}, {"measurement": "IC50", "setting": "K562 cells; K562, 2 h transient exposure, then additional 72 h without compound, read-out: IC50AUC, cytostatic effect after transient exposure", "result": "1900 ± 500", "unit": "nM"}, {"measurement": "IC50", "setting": "[2]", "result": "500 ± 100", "unit": "nM"}, {"measurement": "tumor growth (tumor volume) versus control group", "setting": "K562 tumor xenografts", "result": "suppressed the growth; also recorded: pronounced, and statistically significant reduction"}, {"measurement": "sensitivity of KBTI cells", "setting": "KBTI cells", "result": "partial resistance"}, {"measurement": "Stat5-dependent reporter gene (luciferase) activity", "setting": "Stat5 response element", "result": "inhibit"}, {"measurement": "Stat3-dependent reporter gene (luciferase) activity", "setting": "Stat3 response element", "result": "inhibit"}]}
